Test results as given in patent publication US8901157B2, “Compositions and methods of use of ritonavir for treating HCV” (AbbVie Inc., priority 2006, dated 2014).
Read-outs that look alike come from different tables or passages of the source.

Assays:
[1] = Pharmacokinetics of SCH 503034 in rats, with or without coadministered ritonavir; type: in vivo, Sprague-Dawley derived rats; details: rat; for half-life: mean; for Cmax: po, 5 mg/kg; for C8 h: plasma at 8 h
in vitro [2] = type: in vitro ADME; details: human, pH 7.4, human liver microsomes, read-out: Percent Inhibition of Metabolism by Ritonavir
Procedure: (§1) Liquid handling was carried out on a Tecan EVO robotic system. Triplicate incubations were carried out at a final test compound concentration of 1 μM with 0.5 mg/ml microsomal protein, and 1 mM NADPH. Pooled human liver microsomes (1 mg/ml protein) and NADPH cofactor (2 mM) were prepared in 50 mM phosphate buffer at pH 7.4. Stock solutions (10 mM) of VX-950 or SCH 503034 were prepared in DMSO and then diluted to 100 μM in 1:1 acetonitrile/water. The solutions of compounds were added into the NADPH cofactor solution containing 0, 0.8 or 8 μM of ritonavir in a 2 ml 96-well plate. The resulting solution was added to the microsomes (1:1) that had been pre-incubated for 10 minutes at 37° C. Samples (0.1 ml) were incubated in 96-well plates at 37° C. for 0, 10, 20 and 30 min in a Tecan 4-slot incubator. At each time point, the robotic arm removed one of the replicate plates and the reactions were stopped by adding 1 volume (100 μl) of acetonitrile with internal standard (0.05 μM buspirone) to each well. All plates were centrifuged at 3500 rpm for 30 min, and the supernatant was transferred to a 96-well injection plate. The plates were stored at 4° C. until analyzed.
(§2) LC-MS/MS analysis: The samples were analyzed in positive mode using the turbospray ion source of PE/Sciex API 4000 Q-Trap mass spectrometer with Shimadzu HPLC system. Samples were injected (5 μL) onto a Lancer C18 column (5 μm, 30×2.1 mm) from Analytical Sales and Services Inc. (Pompton Plains, N.J.) and separation occurred via a gradient: The flow rate was 0.5 mL/min; starting conditions of 7.5% B, 2.5% C, increasing to 30% B and 10% C at 0.4 min. […] Mobile phase A was 95/5 water/methanol (v/v) with 10 mM ammonium acetate and 60 μL/L acetic acid. Mobile phase B was methanol containing 10 mM ammonium acetate and 60 μL/L acetic acid. Mobile phase C was acetonitrile.
Using the above conditions, the presence of ritonavir inhibited the metabolism of VX-950 and SCH 503034 in the following manner:
Metabolism of VX-950 and SCH 503034 in Human Liver Microsomes in the Absence or Presence of Ritonavir

in vitro [3] = type: in vitro ADME; details: rat, pH 7.4, rat liver microsomes, read-out: Percent Inhibition of Metabolism by Ritonavir
Procedure: as §1, §2
Using the procedure of Example 1, but substituting rat liver microsomes for human liver microsomes, the presence of ritonavir inhibited the metabolism of VX-950 and SCH 503034 in the following manner: […]

[4] = Sprague-Dawley, rat, in vivo, 5 mg/kg
Procedure: (§3) The 1 mL/kg intravenous dose was administered as a slow bolus (˜1 minutes) in a jugular vein of the rats under isoflurane anesthetic; the 1 ml/kg oral dose (±ritonavir) was administered by gavage. Serial blood samples were obtained from a tail vein of each animal 0.1 (IV only), 0.25, 0.5, 1, 1.5, 2, 3, 4, 6 and 8 hours after dosing. The heparinized samples were placed on ice immediately following collection. Plasma was separated by centrifugation and stored frozen for subsequent analysis.
(§4) Concentrations of parent drug (and ritonavir) were determined by HPLC-MS/MS following liquid-liquid extraction of the plasma samples. Analysis was performed on a Sciex API 2000™ Biomolecular Mass Analyzer using Turbo Ion Spray. Peak areas of the title compounds and internal standards were determined using the Sciex MacQuan™ software. Calibration curves were derived from peak area ratio (parent drug/internal standard) of the spiked plasma standards using least squares linear regression of the ratio versus the theoretical concentration. The maximum plasma concentration (Cmax) and the time to reach the maximum plasma concentration (Tmax) were read directly from the observed plasma concentration-time data. The plasma concentration data were submitted to multi-exponential curve fitting using WinNonlin. The area under the plasma concentration-time curve from 0 to t hours (last measurable plasma concentration time point) after dosing (AUC0-t) was calculated using the linear trapezoidal rule for the plasma-time profiles. The residual area extrapolated to infinity, determined as the final measured plasma concentration (Ct) divided by the terminal elimination rate constant (β), was added to AUC0-t to produce the total area under the curve (AUC0-∞). The apparent total plasma clearance (CLp) was calculated by dividing the administered dose by the AUC0-∞. The volume of distribution, Vc, was estimated by dividing the dose by the extrapolated plasma concentration at time zero (C0). The volume of distribution at steady state, Vss, was estimated as a product of the plasma clearance (CLp) and the mean residence time (MRT); the terminal-phase volume of distribution, Vβ, was derived from the plasma clearance value (CLp) divided by the plasma elimination rate constant (β). The bioavailability was calculated as the dose-normalized AUC0-∞ from the oral dose divided by the corresponding value derived from an intravenous dose.

in vivo = details: Sprague-Dawley, rat, 5 mg/kg
Procedure: as §3, §4

[5] = Pharmacokinetics of VX-950 in rats, with or without coadministered ritonavir; details: rat; for half-life: Sprague-Dawley, plasma, 5 mg/kg
Procedure: as §3, §4

[6] = Sprague-Dawley, plasma, PO 5 mg/kg, no ritonavir, mean (SEM), n=3
[7] = PO 5 mg/kg, no ritonavir, mean (SEM), n=3

## CC(C)(C)NC(=O)N[C@H](C(=O)N1C[C@H]2[C@@H]([C@H]1C(=O)NC(CC1CCC1)C(=O)C(N)=O)C2(C)C)C(C)(C)C (some centres unmarked) [SCH 503034, 3-[2-(3-tert-butyl-ureido)-3,3-diemthyl-butyryl]-6,6-dimethyl-3-aza-bicyclo[3.1.0]hexane-2-carboxylic acid (2-carbamoyl-1-cyclobutylmethyl-2-oxo-ethyl)-amide]
[1]; Sprague-Dawley, plasma, IV 5 mg/kg, mean (SEM), n=3
  AUC: 3120 ng·h/mL
[1]; Sprague-Dawley, plasma, IV 5 mg/kg, mean (SEM), n=3, read-out: CLp (converted)
  clearance: 34 mL/min/kg
[1]; Sprague-Dawley, plasma, IV 5 mg/kg, mean (SEM), n=3, read-out: Vss
  Vd: 0.53 L/kg
[1]; Sprague-Dawley, plasma, IV 5 mg/kg, n=3
  half-life: 0.3 h
[1]; [6]
  AUC: 110 ng·h/mL
  Cmax: 70 ng/mL
[1]; Sprague-Dawley, plasma, PO+ = 5 mg/kg oral SCH 503034 + 5 mg/kg oral ritonavir, mean (SEM), n=3, read-out: AUC (0-8 hr AUC)
  AUC(0-t): 2180 ng·h/mL
[1]; Sprague-Dawley, plasma, PO+ = 5 mg/kg oral SCH 503034 + 5 mg/kg oral ritonavir, n=3
  half-life: 2.5 h
[1]; Sprague-Dawley, plasma, PO+ = 5 mg/kg oral SCH 503034 + 5 mg/kg oral ritonavir, mean (SEM), n=3
  Cmax: 520 ng/mL
[1]; 5 mg/kg oral SCH 503034 + 5 mg/kg oral ritonavir vs SCH 503034 alone, FIG. 3
  plasma levels on coadministering with ritonavir: substantially elevated
[1]; IV 5 mg/kg, mean (SEM), n=3
  Vβ: 0.92 (0.29) L/kg
[1]; [7]
  F: 3.5 (1.5) %
[1]; PO 5 mg/kg, no ritonavir
  C8 h: <0.001
[1]; PO+ = 5 mg/kg oral SCH 503034 + 5 mg/kg oral ritonavir, mean (SEM), n=3
  F: 70.1 (7.0) %
[1]; PO+ = 5 mg/kg oral SCH 503034 + 5 mg/kg oral ritonavir
  C8 h: 0.076

## CCC[C@H](NC(=O)[C@@H]1[C@H]2CCC[C@H]2CN1C(=O)[C@@H](NC(=O)[C@@H](NC(=O)c1cnccn1)C1CCCCC1)C(C)(C)C)C(=O)C(=O)NC1CC1 [VX-950, 2-(2-{2-cyclohexyl-2[(pyrazine-2-carbonyl)-amino]-acetylamino}-3,3-dimethyl-butyryl)-octahydro-cyclopenta[c]pyrrole-1-carboxylic acid(1-cyclopropylaminooxalyl-butyl)-amide]
In vitro [2]; ritonavir 0 micromolar
  inhibition at 1 μM: 0%
In vitro [2]; ritonavir 0.4 micromolar
  inhibition at 1 μM: 72%
In vitro [2]; ritonavir 4.0 micromolar
  inhibition at 1 μM: 100%
In vitro [3]; ritonavir 0 micromolar
  inhibition at 30 min, 1 μM: 0%
In vitro [3]; ritonavir 0.4 micromolar
  inhibition at 30 min, 1 μM: 61%
In vitro [3]; ritonavir 4.0 micromolar
  inhibition at 30 min, 1 μM: 100%
[4]; iv
  Vβ: 8.1 (2.6) L/kg
[4]; po
  F: 34.8 (11.0) %
[4]; po, 8 h
  C8 h: 0.018
In vivo; iv
  AUC: 3030 ng·h/mL
  Vd: 2.4 L/kg
  clearance: 28.3 mL/min/kg
In vivo; po
  AUC: 1050 ng·h/mL
In vivo; po, Tmax
  Tmax: 1.1 h
[5]; iv
  half-life: 2.8 h
[5]; po
  half-life: 1.7 h
[5]; [7]
  Cmax: 0.43 (0.15) μg/ml
